Data as given in US12099068B2, “Biomarkers for graft-versus-host disease” (Incyte Corporation, priority 2018, dated 2024).
“And” between values parts separate entries of the source, which are not always exact repeats. Identical values can stand only once. Where no end group is shown, it is not given here.

Tested on: plasma proteins
Experiment: Plasma proteins modulated between baseline and day 28 in responders (CR, VGPR, PR; n = 19), Example 6 (Table 13)
Format: in vivo, human
Conditions: plasma protein (OLINK NPX); responders (CR, VGPR, PR; n = 19); itacitinib 200 mg or 300 mg QD with corticosteroids; day 28 vs baseline
Experimental: (§1) Due to the limited sample size, steroid-naive (N=10) and steroid-refractory (N=18) patients were combined for further analysis. Broad proteomic analysis of over 1000 proteins was conducted by OLINK Proteomics (Watertown, MA) using a proximity extension assay as described by the manufacturer. Data are presented as normalized protein expression (NPX) in log 2 scale. Statistical differences were evaluated using unpaired and paired t tests, one-way […] (ANOVA), and Pearson Correlation. Significance was conferred when P<0.05.
Longitudinal differences in protein expression were analyzed by evaluating plasma samples from baseline/screening and day 28.

Molecule | Fold Change, Decreased Expression from Baseline to Day 28 | Fold Change, Increased Expression from Baseline to Day 28
HDGF | −1.3392 | –
MAP4K5 | −1.658 | –
LTBP2 | – | 1.1874
TXNDC5 | −1.4081 | –
PLXNA4 | −1.405 | –
THBS2 | – | 1.0963
NCR1 | −1.3726 | –
EZR | – | 1.1031
ERBB2 | – | 1.1968
IL6 | – | 2.0047 and 1.8649 and 1.7278
NMNAT1 | −1.4212 | –
FGR | −1.4406 | –
SIGLEC1 | −1.3842 | –
PIgR | – | 1.1476
ARHGEF12 | −1.8347 | –
THBS4 | −1.7307 | –
FABP2 | – | 3.5893
HAVCR2 | −1.312 | –
HGF | −1.5542 | –
CXCL5 | −1.7254 | –
MMP7 | – | 1.3986

Molecule | Fold Change, Decreased Expression from Baseline to Day 28 | Fold Change, Increased Expression from Baseline to Day 28
CCL11 | – | 1.2818 and 1.3146
TOP2B | −1.7634 | –
MMP-1 | −1.4112 | –
ARSB | −1.3432 | –
PXN | −1.329 | –
TNC | −1.6915 | –
CBL | −1.7183 | –
NCAM1 | – | 1.3216
GAL (GWTLNSAGYLLGPHAVGNHRSFSDKNGLTS; Galanin; UniProt P22466 33-62, looked up) | – | 1.6888
YES1 | −1.9824 | –
NTRK2 | – | 1.118
PAPPA | −1.3491 | –
GCG | – | 1.8922
IGF1R | – | 1.2432
NTRK3 | – | 1.2526
DKN1A | −1.4302 | –
LILRA5 | −1.342 | –
PECAM-1 | −1.2009 | –
NEMO | −1.7984 | –
EIF4G1 | −1.5969 | –
DSC2 | −1.3652 | –

Molecule | Fold Change, Decreased Expression from Baseline to Day 28 | Fold Change, Increased Expression from Baseline to Day 28
TIMP1 | −1.2337 | –
DECR1 | −1.4327 | –
MUC-16 | – | 1.6356
IQGAP2 | −1.5317 | –
IGF2R | – | 1.1734
FKBP1B | −1.9994 | –
APP | −1.5208 | –
STIP1 | −1.2812 | –
Gal-3 | – | 1.3504
SCARA5 | – | 1.1342
TRIM5 | −1.4743 | –
CD27 | −1.6873 | –
DEFA1 | −1.9173 | –
LY75 | −1.1401 | –
TNXB | −1.156 | –
MAX | −1.449 | –
ITGB2 | −1.6877 | –
PPY (APLEPVYPGDNATPEQMAQYAADLRRYINMLTRPRY; ends and bridges not checked; UniProt P01298 30-65, looked up) | – | 1.9703
THPO | – | 1.867
AXIN1 | −1.8046 | –
CA13 | −1.8816 | –

Molecule | Fold Change, Decreased Expression from Baseline to Day 28 | Fold Change, Increased Expression from Baseline to Day 28
COL4A1 | −1.2699 | –
SCF | – | 1.4714 and 1.3943 and 1.4058
FURIN | – | 1.2365
ADGRG1 | −1.1823 | –
MCP-1 | – | 1.6302 and 1.4322
PPP1R9B | −1.6445 | –
TPSAB1 | −1.9835 | –
ANXA11 | −1.3456 | –
PTX3 | −1.5567 | –
NRP1 | −1.1237 | –
ADM | – | 1.2035
VSIG4 | −1.5046 | –
METRNL | – | 1.2013
Siglec-9 | −1.1514 | –
PDGF subunit A | −1.6021 | –
CD38 | −1.4181 | –
CLEC1B | −1.7033 | –
DNAJB1 | −1.7332 | –

Same assay, conditions: responders (CR, VGPR, PR; N=19); baseline to day 28

Molecule | proteins significantly elevated | proteins significantly reduced | total proteins significantly modulated by treatment
N#CCC1(n2cc(-c3ncnc4[nH]ccc34)cn2)CN(C2CCN(C(=O)c3ccnc(C(F)(F)F)c3F)CC2)C1 [itacitinib, {1-{1-[3-Fluoro-2-(trifluoromethyl)isonicotinoyl]piperidin-4-yl}-3-[4-(7H-pyrrolo[2,3-d]pyrimidin-4-yl)-1H-pyrazol-1-yl]azetidin-3-yl}acetonitrile] | 105 | 248 | 353

Tested on: plasma proteins
Experiment: Proteins of Table 11 stably expressed in complete responders between days 1 and 28, Example 5 (Table 12)
Format: in vivo, human
Conditions: between baseline (Day 1) and Day 28
Experimental: as §1

Molecule | proteins from Table 11 that did not modulate in complete responders
N#CCC1(n2cc(-c3ncnc4[nH]ccc34)cn2)CN(C2CCN(C(=O)c3ccnc(C(F)(F)F)c3F)CC2)C1 [itacitinib, {1-{1-[3-Fluoro-2-(trifluoromethyl)isonicotinoyl]piperidin-4-yl}-3-[4-(7H-pyrrolo[2,3-d]pyrimidin-4-yl)-1H-pyrazol-1-yl]azetidin-3-yl}acetonitrile] | 89

Tested on: subjects with aGvHD
Experiment: Parallel-cohort phase 1 trial, clinical response by CIBMTR response criteria at day 28
Format: in vivo, human
Conditions: 200 mg vs 300 mg once daily (QD) + corticosteroids
Source text: A broad proteomic analysis identified predictive, prognostic, and pharmacodynamic biomarkers of response to the combination treatment.
Ten steroid-naive and eighteen steroid-refractory subjects with aGvHD were enrolled in the clinical trial. Plasma samples were collected from all 28 subjects prior to treatment (screening/baseline) and at day 28 following treatment. All subjects provided written consent prior to enrollment and sample collection. Based on the Center for International Blood and Marrow Transplant Research (CIBMTR) response criteria at day 28, subjects were separated into responders and non-responders. Responders included complete responders (CR; n=10), very good partial responders (VGPR; n=1), and partial responders (PR; n=8). Non-responders included mixed responders (n=2) and progressive disease/death (PD/Death; n=7).
as §1

Molecule | Clinical response between the two itacitinib doses
N#CCC1(n2cc(-c3ncnc4[nH]ccc34)cn2)CN(C2CCN(C(=O)c3ccnc(C(F)(F)F)c3F)CC2)C1 [itacitinib, {1-{1-[3-Fluoro-2-(trifluoromethyl)isonicotinoyl]piperidin-4-yl}-3-[4-(7H-pyrrolo[2,3-d]pyrimidin-4-yl)-1H-pyrazol-1-yl]azetidin-3-yl}acetonitrile] | not significantly different

Same assay, conditions: combination with corticosteroids; steroid naïve and refractory aGvHD patients

Molecule | overall responses
N#CCC1(n2cc(-c3ncnc4[nH]ccc34)cn2)CN(C2CCN(C(=O)c3ccnc(C(F)(F)F)c3F)CC2)C1 [itacitinib, {1-{1-[3-Fluoro-2-(trifluoromethyl)isonicotinoyl]piperidin-4-yl}-3-[4-(7H-pyrrolo[2,3-d]pyrimidin-4-yl)-1H-pyrazol-1-yl]azetidin-3-yl}acetonitrile] | improved overall responses
